Literature values, collected in article PMC4537502 (Psychopharmacology, 2015).

How the values were obtained:
D2R [1] = system: D2R; parameters: method as in Tolboom et al. [2015]; conditions: human subjects, ref Tolboom et al. [2015], cited from earlier work
D2R [2] = biological target: D2R; parameters: method as in Pettersson et al. [2010]; conditions: ref Pettersson et al. [2010]; read-out: high-affinity Ki at D2R; cited from earlier work
sigma-1R = conditions: ref Sahlholm et al. [2013], cited from earlier work
striatal D2Rs = system: striatal D2Rs; parameters: method as in Ekesbo et al. ([1999]); conditions: rhesus monkeys, continuous infusion 3 mg/kg/h, ref Ekesbo et al. ([1999]); cited from earlier work

CCCN1CCC[C@@H](c2cccc(S(C)(=O)=O)c2)C1 [(−)-OSU6162]
D2R occupancy (D2R [1]; doses 15 to 90 mg (0.14 to 1.25 mg/kg)): 2 to 33% | level at which the dose-occupancy curve appeared to level off (D2R [1]): 40% | Ki (D2R [2]): 760 nM | Ki (sigma-1R; ^3H-(+)-pentazocine competition, read-out: high-affinity Ki at sigma-1R): ~360 nM | affinity for sigma-1R relative to D2R (sigma-1R; Pettersson et al. [2010]): about two times higher affinity for sigma-1R than for D2R | displacement of ^11C-raclopride (striatal D2Rs): 76%
